Patent US6696427B1, “Use of bisphosphonates for the prevention and treatment of infectious processes” (Jomaa Pharmaka GmbH, priority 1998, dated 2004)

System: γδ-T cells
Test: activatability of γδ-T cells in mononuclear cells isolated from blood of treated test subjects
Format: in vivo, human
Description: […] After the third infusion, a blood sample was taken from the subjects. The mononuclear cells were isolated from the blood. The activatability of the γδ-T cells was then tested. A full description is published in Jomaa et al. FEMS Immunol. Med. Microbiol. September 1999; 25(4); 371-8.
In contrast, cells from control subjects could be activated.

Compound	γδ-T cell activation by antigens obtained from microorganisms (healthy test subjects, infusion of 90 mg at fortnightly intervals, blood sample after the third infusion, isolated mononuclear cells)	γδ-T cell activation by antigens obtained from microorganisms (test subjects, 1 mg per treatment, protocol from Example 1)
NCCC(O)(P(=O)(O)O)P(=O)(O)O [pamidronic acid, 3-amino-1-hydroxypropylidene-1,1-bisphosphonic acid]	no γδ-T cell activation	
CCCCCN(C)CCC(O)(P(=O)(O)O)P(=O)(O)O [ibandronic acid, 3-methylpentylamino-1-hydroxypropylidene-1,1-bisphosphonic acid]		no γδ-T cell activation
